Test results published in ChEMBL document CHEMBL4130371, “Norepinephrine alkaloids as antiplasmodial agents: Synthesis of syncarpamide and insight into the structure-activity relationships of its analogues as antiplasmodial agents” (Eur J Med Chem, 2017).
pIC50: −log10 of the molar value.

Tests used:
Plasmodium falciparum [1] = assay: Antiplasmodial activity against chloroquine-sensitive Plasmodium falciparum 3D7 measured after 72 hrs by SYBR green 1 dye based fluorescence assay; assay type: functional, organism-based; settings: 3D7, 72 h
Plasmodium falciparum [2] = assay: Antiplasmodial activity against chloroquine-resistant Plasmodium falciparum K1 measured after 72 hrs by SYBR green 1 dye based fluorescence assay; assay type: functional, organism-based; settings: K1, 72 h
[3] = Cytotoxicity against African green monkey Vero cells assessed as reduction in cell viability after 72 hrs by MTT assay; assay type: cell-based; settings: chlorocebus sabaeus
[4] = Selectivity index, ratio of CC50 for African green monkey Vero cells to IC50 for chloroquine-sensitive Plasmodium falciparum 3D7; assay type: toxicity; settings: read-out: Ratio CC50/IC50

Row | SMILES | pIC50 (Plasmodium falciparum [1]) | pIC50 (Plasmodium falciparum [2]) | CC50 at 72 h [3] [µM] | selectivity ratio [4]
1 | COc1ccc([C@@H](CNC(=O)CCc2ccccc2)OC(=O)/C=C/c2ccccc2)cc1OC | < 5.00 | < 5.00 | 44.3 | < 4.43
2 | COc1ccc([C@@H](CNC(=O)/C=C/c2ccccc2)OC(=O)CCc2ccccc2)cc1OC | < 5.00 | < 5.00 | 36.9 | < 3.69
3 | COc1ccc([C@H](O)CNC(=O)/C=C/c2ccccc2)cc1 | 5.17 | 5.14 |  | 
4 | O=C(/C=C/c1ccccc1)OC[C@H](OC(=O)/C=C/c1ccccc1)c1ccc2ccccc2c1 | < 5.00 | 5.67 | 181 | < 18.1
5 | COc1cc([C@@H]2c3cc4c(cc3[C@H](O)[C@H]3COC(=O)[C@H]23)OCO4)cc(OC)c1OC [PODOFILOX] |  |  | 5.74 | 
6 | CCCC(=O)O[C@H](CNC(=O)/C=C/c1ccccc1)c1ccc(OC)c(OC)c1 | < 5.00 | < 5.00 | 29.9 | < 2.98
7 | COc1ccc([C@@H](O)CNC(=O)/C=C/c2ccccc2)cc1 [AEGELINE] | < 5.00 | < 5.00 |  | 
8 | O=C(/C=C/c1ccccc1)OC[C@@H](OC(=O)/C=C/c1ccccc1)c1ccc2ccccc2c1 | < 5.00 | < 5.00 | > 200 | 20
9 | CCCC(=O)NC[C@@H](OC(=O)/C=C/c1ccccc1)c1ccc(OC)c(OC)c1 | < 5.00 | < 5.00 | 42.4 | < 4.24
